Measured values from US8697706B2 (priority 2011, dated 2014).

Tested on: HCV pseudoparticles (genotype 1a HCV E1 and E2 envelope, H77C isolate)
Test: microbe, parasite or virus in culture
Format: cell-based, HCV genotype 1a (H77C isolate)
Details: Hepatitis C virus, Huh-7, 48 h, HCV pseudoparticle entry into Huh7 cells, luciferase measured 2 days after infection

| SMILES | EC50 (average of duplicate) [nM] | EC50 (class symbol) [nM] |
| --- | --- | --- |
| CC1(C)CNCCCOc2ccc(cc2)CNc2nc(cc(OCC(F)(F)F)n2)Nc2ccc(cc2)C(=O)NC1 [Compound 3001] | 106 | 100 to 1000 |
| CC1(C)CNCCCOc2ccc(cc2)CNc2cc(OCC(F)(F)F)nc(n2)Nc2ccc(cc2)C(=O)NC1 [Compound 3002] | – | < 100 |
